Reference: patent EP4635969A1, “NOVEL GLUCOCORTICOID, METHOD FOR PREPARING SAME, AND USE THEREOF” (Tianjin Pharmaceutical Biotechnology Co., Ltd., priority 2022, dated 2024)

What was measured:
psoriasis model mice = assay: Psoriasis experiment (imiquimod model): skin lesion (PASI) score; format: in vivo
Experimental: Positive control drug: Fluticasone Propionate Cream (specification: 0.05% × 15 g, Zhejiang Xianju Pharmaceutical Co. Ltd., Lot No. 211106), stored at room temperature protected from light until use.
Adult mice were selected, and the skin of 2 cm × 3 cm on the back of mice was locally depilated. The mice in the model group and drug administration group were applied with 62.5 mg of 5% imiquimod cream on their back for modeling, while the mice in the blank control group were applied with medical petroleum jelly on their back daily. The above procedures were performed once a day for 7 consecutive days.
The mice in the drug administration group were applied with the corresponding drugs on their backs daily at a dose of 0.2 g per mouse, while the blank control group and the model group were only applied with 0.2 g of the test sample drug matrix. One hour after drug administration, the drugs were wiped off with sterile cotton swabs, followed by the application of imiquimod. The above procedures were performed once a day for 7 consecutive days.
Referring to the clinical Psoriasis Area and Severity Index (PASI) scoring criteria, erythema, scaling, and thickness at the skin lesion sites were evaluated on a 0-4 scale on day 8 of modeling, and the total score was obtained by summing the three items.
• (1) Erythema: a score of 0 points indicates no erythema, a score of 1 point indicates erythema appearing light red, a score of 2 points indicates erythema appearing red, a score of 3 points indicates erythema appearing dark red, and a score of 4 points indicates erythema appearing extremely deep red; • (2) Scaling: a score of 0 points indicates no scaling on the surface, a score of 1 point indicates partial skin lesions covered with scaling, a score of 2 points indicates most skin lesions covered with scaling, a score of 3 points indicates almost all skin lesions covered with scaling in layers, and a score of 4 points indicates all skin lesions covered with scaling; • (3) Thickness: a score of 0 points indicates skin lesions flush with normal skin, a score of 1 point indicates skin lesions slightly elevated above normal skin surface, a score of 2 points indicates moderate elevation of skin lesions, a score of 3 points indicates thickened skin lesions with obvious elevation, and a score of 4 points indicates highly thickened skin lesions with prominent elevation.
Statistical analysis was performed using SPSS software, and the results were expressed as mean ± standard deviation. One-way ANOVA was used for intergroup comparisons. For data with homogeneous variance, the LSD test was used; for data with heterogeneous variance, the Dunnett-t test was used. A value of P < 0.05 was considered statistically significant.

epidermal layer in rats = assay: Adverse reactions of continuous dermal administration: thickness of the epidermal layer (H&E sections); format: in vivo, SD rats
Excerpt: Pharmacological Example 10: Experiment on Adverse Reactions of Continuous Dermal Administration in Rats
Animals: SD rats, SPF grade, with an equal number of males and females, weighing 230-250 g.
Animal grouping: After adaptive feeding, the rats were randomly divided into 4 groups. […] One day before administration, the backs of rats were shaved at an area of 5 cm × 6 cm. […] The rats in the blank control group were applied with the blank matrix of corresponding mass on their backs, twice a day for a consecutive week. Table 21. Animal grouping and drug administration dosages for the experiment on adverse reactions of continuous dermal administration in rats
To examine the effects of continuous administration of the test samples on the epidermal layer, the back skin tissues were stained with hematoxylin and eosin (H&E) (magnification ×40), and the thickness of the epidermal layer was quantitatively measured based on the H&E-stained sections.

[1] = target: T1, progesterone receptor (PR) (Homo sapiens, UniProt P06401); assay: Assay for agonist activity on progesterone receptor (luciferase reporter, HEK293 cells transfected with pBIND-PR plasmid); format: cell-based
T1 sequence (P06401 678-933): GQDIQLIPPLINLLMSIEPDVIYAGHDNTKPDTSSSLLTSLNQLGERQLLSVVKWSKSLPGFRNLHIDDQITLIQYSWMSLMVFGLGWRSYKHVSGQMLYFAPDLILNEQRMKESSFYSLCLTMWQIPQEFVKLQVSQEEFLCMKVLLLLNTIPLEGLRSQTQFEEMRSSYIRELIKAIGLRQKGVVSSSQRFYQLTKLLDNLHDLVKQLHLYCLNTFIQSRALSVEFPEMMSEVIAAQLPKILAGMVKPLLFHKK
Method in brief: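 HEK293 cells transiently transfected with pBIND-MR or pBIND-PR, seeded in phenol red-free DMEM with 5% charcoal-stripped serum. Compounds tested as 12-point 4-fold dilutions from 50 µM in duplicate, 0.1% DMSO blank. Luciferase luminescence read, EC50 by nonlinear fit.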

[2] = test system: inflammatory bowel disease model rats; assay: Inflammatory bowel disease experiment (TNBS model): macroscopic injury score of the colon; format: in vivo; details: compared with the model group
Method in brief: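 Colitis in rats was induced by intrarectal TNBS 50 mg/kg (20 mg/mL in 50% ethanol) after 24 h fasting. Dosing began 1 h before induction, then daily for 5 days. On day 5 colon was scored macroscopically for adhesion, obstruction, wall thickening, congestion and necrosis, with ANOVA/Dunnett or Kruskal-Wallis/Mann-Whitney statistics.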

Structure (SMILES): C[C@]12C=CC(=O)C=C1CC[C@H]1[C@@H]3C[C@H]4OC(c5ccc(CSC6CCOC6=O)cc5)O[C@@]4(C(=O)CO)[C@@]3(C)C[C@H](O)[C@@]12F (stereo partly drawn) [Compound 17, (6aS,6bR,7S,8aS,8bS,11aR,12aS,12bS)-6b-Fluoro-7-hydroxy-8b-(2-hydroxyacetyl)-6a,8a-dimethyl-10-(4-(((2-oxotetrahydrofuran-3-yl)thio)methyl)phenyl)-1,2,6a,6b,7,8,8a,8b,11a,12,12a,12b-do decahydro-4H-naphtho[2',1':4,5]indeno[1,2-d][1,3]dioxol-4-one]
- PASI scores (psoriasis model mice; compared with the model group): PASI scores significantly decreased on day 7
- PASI score (psoriasis model mice; day 8 of modeling, 0.2 g cream per mouse daily for 7 days (compounds 1 mg/g, fluticasone propionate 0.5 mg/g)): 4.5 ± 0.6
- Epidermal layer thickness (µm) (epidermal layer in rats; 100 mg cream on the back twice a day for a week (compounds 1 mg/g, Compound Dexamethasone Acetate 0.75 mg/g)): 23.5 ± 3.5 µm
- thickness of the epidermal layer after continuous dermal administration (epidermal layer in rats; compared with the blank control group): no significant changes in the thickness of the epidermal layer were observed
- EC50 ([1]; EC50 of agonist activity, HEK293 reporter cells, top concentration 50 µM, read-out: Nuclear receptor enzyme activity (nM) PR): > 50000 nM
- Target selectivity PR/GR ([1]; ratio of EC50 values): > 1.7×10^5
- inflammatory response on the intestinal surface / intestinal symptoms [2]: significantly alleviated the intestinal symptoms in inflammatory bowel disease model rats
